In patent publication US10322110B2, “Imidazole-based antimicrobial agents” (priority 2014, dated 2019):
Values after ≈ are worked out from the molar mass of the structure shown. Like-named read-outs stand apart in the source and are kept apart here.

What was measured:
Format in all cases: cell-based
[1] = test system: penicillin-, erythromycin- and tetracycline-resistant Streptococcus pneumoniae (ATCC 700677), ARSP; test: microbe, parasite or virus in culture
[2] = test system: Bacillus subtilis (Marburg strain, ATCC6051); test: microbe, parasite or virus in culture; settings: ATCC6051, read-out: Antibacterial activity BS (Bacillus substilis)
[3] = test system: Staphylococcus aureus MSSA (Newman); test: broth microdilution MIC assay, Staphylococcus aureus MSSA (Newman); settings: for MIC: Staphylococcus aureus; for Antibacterial activity Staphylococcus aureus (MSSA): MIC100 class score, broth microdilution
[4] = test system: Human hepatocytes (HepaRG cells); test: human cytotoxicity assay in vitro (CellTiter-Glo), hepatocytes; settings: cytotoxicity class
[5] = test system: Staphylococcus epidermidis (PCI 1200, ATCC12228); test: broth microdilution MIC assay, Staphylococcus epidermidis; settings: ATCC12228, read-out: Antibacterial activity SE (Staphylococcus epidermidis)
[6] = test system: Staphylococcus aureus MRSA (COL); test: broth microdilution MIC assay, Staphylococcus aureus MRSA (COL); settings: for MIC: Staphylococcus aureus, MRSA; for Antibacterial activity Staphylococcus aureus (MRSA): MIC100 class score, broth microdilution
[7] = test system: Streptococcus pneumoniae (Chester, ATCC49619); test: broth microdilution MIC assay, Streptococcus pneumoniae; settings: MIC100 class score, 24 h
[8] = ATCC700677, MIC activity class, read-out: Antibacterial activity ARSP (multi-drug resistant-SP)
[9] = 24 h, read-out: Antibacterial activity Staphylococcus aureus (MSSA)
[10] = read-out: Antibacterial activity MSSA (Staphylococcus aureus MSSA)
[11] = 24 h, read-out: Antibacterial activity Staphylococcus aureus (MRSA)
[12] = read-out: Antibacterial activity MRSA (Staphylococcus aureus MRSA)

SMILES | MIC [1, 8] [µg/mL] | MIC [2] [µg/mL] | MIC [3, 9] [µg/mL] | MIC [3, 10] [µg/mL] | cytotoxicity cell line H (hepatocytes) [4] | MIC [5] [µg/mL] | MIC [6, 11] [µg/mL] | MIC [6, 12] [µg/mL] | Antibacterial activity Streptococcus pneumoniae [7] | MIC ([1]; ATCC700677, read-out: Antibacterial activity ARSP (multi-drug resistant-SP)) [µg/mL] | Antibacterial activity Staphylococcus aureus (MSSA) ([3]; 24 h) | Antibacterial activity Staphylococcus aureus (MRSA) ([6]; 24 h)
Cc1[nH]c(-c2ccc(-c3cccc(Cl)c3Cl)o2)nc1-c1ccccc1 [Compound 2] | 2 to 5 (≈ 5.42 to 13.5 µM) | 20 to 50 (≈ 54.2 to 135 µM) | 20 to 50 (≈ 54.2 to 135 µM) | 20 to 50 (≈ 54.2 to 135 µM) | 2 | – | – | – | – | – | – | –
Cc1[nH]c(-c2ccc(-c3ccccc3Cl)o2)nc1-c1ccccc1 [Compound 3] | – | – | 3 to 10 (≈ 8.96 to 29.9 µM) | 3 to 10 (≈ 8.96 to 29.9 µM) | 3 | 11 to 201 (≈ 32.9 to 600 µM) | 11 to 201 (≈ 32.9 to 600 µM) | 11 to 201 (≈ 32.9 to 600 µM) | – | – | – | –
Cc1nc(-c2ccc(-c3cccc(Cl)c3)o2)[nH]c1-c1ccccc1 [Compound 4] | – | – | 1 to 3 (≈ 2.99 to 8.96 µM) | 1 to 3 (≈ 2.99 to 8.96 µM) | – | 3 to 10 (≈ 8.96 to 29.9 µM) | 11 to 201 (≈ 32.9 to 600 µM) | 11 to 201 (≈ 32.9 to 600 µM) | – | – | – | –
Cc1nc(-c2ccc(-c3ccc(Cl)cc3)o2)[nH]c1-c1ccccc1 [Compound 5] | – | – | 1 to 3 (≈ 2.99 to 8.96 µM) | 1 to 3 (≈ 2.99 to 8.96 µM) | 2 | 3 to 10 (≈ 8.96 to 29.9 µM) | 3 to 10 (≈ 8.96 to 29.9 µM) | 3 to 10 (≈ 8.96 to 29.9 µM) | – | – | – | –
Cc1[nH]c(-c2cc(C)n(-c3ccc(Cl)cc3)c2C)nc1-c1ccccc1 [Compound 8] | – | – | – | – | 2 | – | – | 20 to 50 (≈ 55.3 to 138 µM) | 3 (MIC100 of 2-5 μg/ml) | – | – | –
Cc1[nH]c(-c2cc(C)n(-c3ccc(F)cc3F)c2C)nc1-c1ccccc1 [Compound 9] | – | – | – | – | 3 | – | – | 20 to 50 (≈ 55 to 138 µM) | 2 (MIC100 of 6-10 μg/ml) | – | – | –
Cc1[nH]c(-c2cc(C)n(-c3ccc(F)c(F)c3F)c2C)nc1-c1ccccc1 [Compound 10] | – | – | – | – | 3 | – | – | – | 2 (MIC100 of 6-10 μg/ml) | – | – | –
Cc1[nH]c(-c2ccc(-c3ccccc3C(F)(F)F)o2)nc1-c1ccccc1 [Compound 17] | – | 1 to 3 (≈ 2.71 to 8.14 µM) | 3 to 10 (≈ 8.14 to 27.1 µM) | 3 to 10 (≈ 8.14 to 27.1 µM) | 3 | 20 to 50 (≈ 54.3 to 136 µM) | 1 to 3 (≈ 2.71 to 8.14 µM) | 1 to 3 (≈ 2.71 to 8.14 µM) | – | – | – | –
Cc1nc(-c2ccc(-c3ccccc3C(F)(F)F)o2)[nH]c1-c1ccccc1Cl [Compound 20] | 2 to 5 (≈ 4.97 to 12.4 µM) | 20 to 50 (≈ 49.7 to 124 µM) | – | 20 to 50 (≈ 49.7 to 124 µM) | 3 | – | – | – | – | – | – | –
Cc1[nH]c(-c2ccc(-c3ccccc3C(F)(F)F)o2)nc1-c1ccc(Br)cc1 [Compound 25] | – | 20 to 50 (≈ 44.7 to 112 µM) | – | – | – | – | – | – | 3 (MIC100 of 2-5 μg/ml) | – | – | –
Cc1[nH]c(-c2ccc(-c3ccccc3OC(F)(F)F)o2)nc1-c1ccc(C(F)(F)F)cc1 [Compound 26] | – | – | – | – | – | – | – | – | 3 (MIC100 of 2-5 μg/ml) | 6 to 10 (≈ 13.3 to 22.1 µM) | – | –
CCc1ccc(-c2[nH]c(-c3ccc(-c4ccccc4C(F)(F)F)o3)nc2C)cc1 [Compound 28] | – | 1 to 3 (≈ 2.52 to 7.57 µM) | – | 20 to 50 (≈ 50.5 to 126 µM) | – | – | – | 20 to 50 (≈ 50.5 to 126 µM) | 3 (MIC100 of 2-5 μg/ml) | – | – | –
Cc1nc(-c2ccc(-c3ccccc3OC(F)(F)F)o2)[nH]c1-c1ccc(Br)cc1 [Compound 29] | – | – | – | 3 to 10 (≈ 6.48 to 21.6 µM) | – | – | – | 11 to 201 (≈ 23.7 to 434 µM) | 3 (MIC100 of 2-5 μg/ml) | – | 3 (MIC100 of 3-10 μg/ml) | 2 (MIC100 of 11-201 μg/ml)
COc1ccc(-c2ccc(-c3nc(C)c(-c4ccccc4)[nH]3)o2)c(C(F)(F)F)c1 [Compound 31] | – | – | 3 to 10 (≈ 7.53 to 25.1 µM) | 3 to 10 (≈ 7.53 to 25.1 µM) | 3 | – | 3 to 10 (≈ 7.53 to 25.1 µM) | 3 to 10 (≈ 7.53 to 25.1 µM) | – | – | – | –
Cc1nc(-c2ccc(-c3cc(F)ccc3C(F)(F)F)o2)[nH]c1-c1ccccc1 [Compound 31a] | 2 to 5 (≈ 5.18 to 12.9 µM) | 20 to 50 (≈ 51.8 to 129 µM) | 20 to 50 (≈ 51.8 to 129 µM) | 20 to 50 (≈ 51.8 to 129 µM) | 2 | – | – | – | – | – | – | –
Cc1nc(-c2ccc(-c3ccc(Cl)cc3C(F)(F)F)o2)[nH]c1-c1ccccc1 [Compound 32] | – | – | 1 to 3 (≈ 2.48 to 7.45 µM) | 1 to 3 (≈ 2.48 to 7.45 µM) | 2 | 3 to 10 (≈ 7.45 to 24.8 µM) | 3 to 10 (≈ 7.45 to 24.8 µM) | 3 to 10 (≈ 7.45 to 24.8 µM) | – | – | – | –
Cc1[nH]c(-c2ccn(-c3ccccc3C(F)(F)F)c2)nc1-c1ccccc1 [Compound 33] | – | – | – | 3 to 10 (≈ 8.17 to 27.2 µM) | – | 11 to 201 (≈ 29.9 to 547 µM) | – | 20 to 50 (≈ 54.4 to 136 µM) | 2 (MIC100 of 6-10 μg/ml) | – | 3 (MIC100 of 3-10 μg/ml) | –
Cc1nc(-c2ccc(-c3cc(C(F)(F)F)cc(C(F)(F)F)c3)o2)[nH]c1-c1ccccc1 [Compound 35] | 6 to 10 (≈ 13.8 to 22.9 µM) | 3 to 10 (≈ 6.88 to 22.9 µM) | 3 to 10 (≈ 6.88 to 22.9 µM) | 3 to 10 (≈ 6.88 to 22.9 µM) | – | 20 to 50 (≈ 45.8 to 115 µM) | 20 to 50 (≈ 45.8 to 115 µM) | 20 to 50 (≈ 45.8 to 115 µM) | – | – | – | –
Cc1[nH]c(-c2cc(C)n(-c3cccc(C(F)(F)F)c3)c2C)nc1-c1ccccc1 [Compound 36] | – | – | – | – | 3 | – | – | 11 to 201 (≈ 27.8 to 508 µM) | 3 (MIC100 of 2-5 μg/ml) | – | – | 2 (MIC100 of 11-201 μg/ml)
